Assay results from patent US20250221970A1, “Combinations of a B-RAF Inhibitor and an Anti-EGFR Antibody for the Treatment of Cancer” (MapKure, LLC, priority 2022, published 2025).
Values after ≈ are worked out from the molar mass of the structure shown.

Legend:
[1] = Hygroscopicity of the solid form (Form F) of Compound A; type: physicochemical; conditions: at 80% relative humidity (RH)
[2] = Solubility of the solid form (Form F) of Compound A; type: physicochemical
[3] = Solid form stability of Form F at long-term and accelerated condition; type: physicochemical
CYP3A = experiment: In vitro metabolism of Compound A; type: in vitro ADME; conditions: in vitro data
[4] = Compound A monotherapy clinical study; type: in vivo, human

## O=C1CCc2c(Oc3ccc4c(c3)[C@H]3[C@H](NC(=O)Nc5cc(F)c(F)cc5F)[C@H]3O4)ccnc2N1 [Compound A, 1-((1S,1aS,6bS)-5-((7-oxo-5,6,7,8-tetrahydro-1,8-naphthyridin-4-yl)oxy)-1a,6b-dihydro-1H-cyclopropa[b]benzofuran-1-yl)-3-(2,4,5-trifluorophenyl) urea]
[1]
  Hygroscopicity (classification): moderately hygroscopic.
[1]; actual moisture of 81.5%
  Hygroscopicity: moisture absorption: 81.5% and a moisture absorption of about 5.425%; the sample was
[2]; 0.1N HCl, simulated gastric fluid, in 0.1N HCI
  solubility: 240 µg/mL (≈ 497 µM)
[2]; medium with 0.5% hexadecyl trimethyl ammonium bromide (HTAB), aqueous with cosolvent or surfactant or cyclodextrin, with 0.5% HTAB (hexadecyl trimethyl ammonium bromide)
  solubility: 310 µg/mL (≈ 643 µM)
[2]; medium with 1% sodium lauryl sulphate (SLS), aqueous with cosolvent or surfactant or cyclodextrin, with 1% SLS (sodium lauryl sulphate)
  solubility: 450 µg/mL (≈ 933 µM)
[2]; pH 4.5 buffer, pH 4.5, aqueous buffer
  solubility: < 5 µg/mL
[2]; pH 6.8 buffer, pH 6.8, aqueous buffer
  solubility: < 5 µg/mL
[3]; accelerated condition (40° C./75% RH)
  Stability: time Form F is in amorphous form: (25° C./60% RH) as well as for 6 months at accelerated condition (40° C./
[3]; long-term condition (25° C./60% RH)
  Stability: time Form F is in amorphous form: Form F is in amorphous form for 24 months at long-term condition
CYP3A
  Main metabolic pathway: mainly metabolized by the CYP3A pathway
[4]; Compound A monotherapy, QD
  MTD (maximum tolerated dose): 40 mg
[4]; emerging data from the ongoing Compound A clinical study
  Increased incidence of ocular AEs: no evidence
